Legend:
[1] = biological target: Thermotoga maritima mPPase (TmPPase) (Thermotoga maritima, UniProt Q9S5X0); experiment: TmPPase inhibition assay (96-well plate, orthophosphate determination); format: biochemical; settings: for LE (ligand efficiency): computed using the pIC50 and the Heavy Atom Count (LEHA) normalization method, Discovery Studio; for IC50 [CI95%] / IC50: purified TmPPase; for biological activity (in words): TmPPase
Description: The inhibition assay was measured in 96 well plate assay as previously reported.5,6 Briefly, 1 µL of purified TmPPase (13 mg/mL) was reactivated in 99 µL of reactivation buffer (20 mM 2-(N-morpholino) ethanesulfonic acid (MES) pH 6.5, 3.5% (v/v) glycerol, 2 mM dithiothreitol (DTT), 4.5% dodecyl maltoside (DDM) and 12 mg/mL L-α-phosphatidylcholine from soybean) and incubated at 55 °C for 15 min. For the assay, to each tube strips, 0.2 µL of the reactivated enzyme was added to 14.8 µL of reaction buffer (200 mM Tris-Cl pH 8.0, 8.0 mM MgCl2, 333 mM KCl, and 67 mM NaCl) and 25 µL of inhibitor. The reaction mixtures were sealed with an adhesive sealing sheet (Thermo Scientific) and incubated at 71 °C for 5 min. The reactions were started with the addition of 10 µL of 2 mM sodium pyrophosphate, further incubation at 71 °C for 5 min and stopped by placing the reaction mixtures on ice for 10 min. The color development was done with the addition of ammonium heptamolybdate + ascorbic acid solution on ice for 10 min and then 90 µL of arsenic solution, at room temperature, for a minimum of 30 min. 180 µL of each reaction mixtures was then transferred into a clear 96 well polystyrene microplate and the absorbance was measured at 860 nm using a microplate spectrophotometer (MultiSkan Go, Thermo Scientific). The pilot inhibitor screening of 16 phosphate-mimicking fragments was done at 100 μM inhibitor concentration. Further screening was done with three different concentrations; 1 μM, 5 μM and 50 μM for soluble compounds, and 1 μM, 5 μM, and 20 μM for sparingly soluble compounds.6 The best hits were validated using 8 concentrations in triplicate in TmPPase.
The potent hits 12k and 12l compounds were then tested on the P. falciparum (PfPPase-VP1) membrane fractions expressed in baculovirus-infected insect cells (the expression method and further enzyme analysis will be described in more detail elsewhere). Briefly, to each tube strips, 2.4 µL of PfPPase-VP1 membrane fraction (5 mg/mL) was added into 12.6 µL of reaction buffer (200 mM Tris-Cl pH 8.0, 8.0 mM MgCl2, 333 mM KCl, 67 mM NaCl, 3.3 mM NaF, and 17 μM Gramicidin D) and 25 µL of inhibitor. The reaction mixtures were incubated at 30 °C for 5 min and the assay was started by the addition of 10 µL of 2 mM sodium pyrophosphate and further incubation at 30 °C for 10 min. The reaction termination and color development were done as before.
The in vitro anti-plasmodial activity assay strain 3D7 was maintained in culture as described previously.7 Briefly, parasites were cultured in O+ human erythrocytes at 5% haematocrit in RPMI - 1640 medium supplemented with 0.5% Albumax II (Gibco, Carlsbad, CA, USA), 200 μM hypoxanthine (Sigma, St. Louis, MO, USA) and 20 μg/mL gentamycin (Gibco). Parasites were synchronized with the sorbitol method as described. 8 Test compound was dissolved in DMSO to make a stock solution of 10 mM. Two -fold serial dilutions of the test compound were made in the culture medium to cover the range of 400 µM – 400 nM. Fifty microliters of each dilution were mixed in 96 well plate with 150 µL of 2% haematocrit of 0.5% parasitemia (ring stage). DMSO concentration in the highest compound concentration w as 0.1%. After 72 h incubation at 37 °C, the parasite growth was quantified using fluorescent SYBR Green I ® -based assay as described. 9 The half-maximal inhibitory concentration (IC 50) of the test compound was assessed using the non-linear regression fit model in Prism 7 (GraphPad Software). The potent anti-malarial drug, artemisinin, was use in parallel as a positive control. Each concentration of the test compound was tested in duplicate and the assay was repeated three times. The mean and standard deviation of the three repeats were used to estimate the IC50.
IC50 determinations were done using R 3.6.110 and the n-parameter logistic regression (nplr) package11 version 0.1-7. In this package, the weighted nplr, given x (compound concentrations) and […]

[2] = Colloidal aggregation under TmPPase assay conditions (nephelometry); format: physicochemical
Description: Aggregation data for 5, 12k and 12l (Figure S1)
Potential colloidal aggregation in the TmPPase model system was studied at five concentrations (50 µM, 25 µM, 10 µM, 5 µM, and 1 µM). The original assay conditions were simulated, and the light scattering of potential aggregates in the mixture was studied by nephelometric methods using Nepheloskan Ascent® (Labsystems, Finland). Aggregation of the blank and compounds 5, 12k and 12l were measured as triplicates from one independent experiment at three different voltages (300 V, 400 V and 500 V) at room temperature.
5 µM and 1 µM concentrations the obtained values were close to those observed by the blank, thereby […]
Figure S1. Aggregation data for compounds 5, 12k and 12l. The data, measured in relative nephelometric units (RNU), is shown as the mean ± SD and normalized to the blank.
(1 picture or pasted object on this page, not shown here)
Experimental procedures and characterization data
Commercial analogues were retrieved by screening the ZINC12 database1 (clean drug-like subset; downloaded on 27.04.2016) using a KNIME2 workflow connected to the RDKit3 nodes. The SAR analyses and docking studies (data not shown) underlying this work were conducted using the Schrödinger molecular modeling platform (Canvas and Glide modules, respectively)4 .
Compounds 1–7, 13–20 and 24 were obtained from commercial suppliers. Supporting Information, Table S1 summarizes the compounds tested. Compound purity was >95% as determined by LC-MS and characterized by HRMS. For all commercial compounds after the initial screen, purity was tested independently from the vendor specification (a few compounds of lower purity are reported only in Supporting Information). To evaluate potential aggregation of samples in the TmPPase based assay, aggregate formation in the assay conditions was studied at five concentrations (50 μM, 25 μM, 10 μM, 5 μM, and 1 μM) for compounds 5, 12k and 12l (Figure S1).
All chemicals used were commercially available. Reactions using anhydrous conditions were conducted in oven-dried (130 °C, >24 h) glassware, purged with argon prior to use. Microwave reactions were performed using a Biotage Initiator+ instrument (Uppsala, Sweden). The progress of the reactions was monitored by thin-layer chromatography on silica gel 60-F254 aluminum plates and visualized by using a dual short/long wave (254/366 nm) UV lamp. The combined organic solutions from extractions were dried over anhydrous Na2SO4, filtered and concentrated with a rotary evaporator at reduced pressure. Flash SiO2 column chromatography was performed with automated high performance flash chromatography, Biotage Isolera™ Spektra Systems with ACI™ and Assist (ISO-1SW Isolera One) equipped with a variable UV-VIS (200–800 nm) photodiode array (Uppsala, Sweden) using SNAP KP-SIL/Ultra 10 g or 25 g cartridges and the indicated mobile phase gradient.
The reactions were not optimized and all the yields are given for purified products.
Characterization of the synthesized products were done by NMR and MS analysis. 1H and 13C NMR spectra were acquired at 298 K on a Bruker Ascend 400 MHz – Avance III HD NMR spectrometer (Bruker Corporation, Billerica, MA, USA). Chemical shifts (δ) are reported in parts per million (ppm) relative to the residual solvent signals: CDCl3 7.26 and 77.16 ppm, CD3OD 3.31 and 49.00 ppm, DMSO-d6 2.50 and 39.52 ppm for 1H and 13C NMR, respectively. […] High resolution mass (HRMS-ESI) data was reported for the calculated and experimentally […]

[3] = 95% confidence interval in square brackets
[4] = IC50 [CI95%] (µM), unrounded values of the molecular formula strings file
[5] = IC50 [CI95%], 95% confidence interval in square brackets

Sequence of Thermotoga maritima mPPase (TmPPase) (Q9S5X0 whole entry): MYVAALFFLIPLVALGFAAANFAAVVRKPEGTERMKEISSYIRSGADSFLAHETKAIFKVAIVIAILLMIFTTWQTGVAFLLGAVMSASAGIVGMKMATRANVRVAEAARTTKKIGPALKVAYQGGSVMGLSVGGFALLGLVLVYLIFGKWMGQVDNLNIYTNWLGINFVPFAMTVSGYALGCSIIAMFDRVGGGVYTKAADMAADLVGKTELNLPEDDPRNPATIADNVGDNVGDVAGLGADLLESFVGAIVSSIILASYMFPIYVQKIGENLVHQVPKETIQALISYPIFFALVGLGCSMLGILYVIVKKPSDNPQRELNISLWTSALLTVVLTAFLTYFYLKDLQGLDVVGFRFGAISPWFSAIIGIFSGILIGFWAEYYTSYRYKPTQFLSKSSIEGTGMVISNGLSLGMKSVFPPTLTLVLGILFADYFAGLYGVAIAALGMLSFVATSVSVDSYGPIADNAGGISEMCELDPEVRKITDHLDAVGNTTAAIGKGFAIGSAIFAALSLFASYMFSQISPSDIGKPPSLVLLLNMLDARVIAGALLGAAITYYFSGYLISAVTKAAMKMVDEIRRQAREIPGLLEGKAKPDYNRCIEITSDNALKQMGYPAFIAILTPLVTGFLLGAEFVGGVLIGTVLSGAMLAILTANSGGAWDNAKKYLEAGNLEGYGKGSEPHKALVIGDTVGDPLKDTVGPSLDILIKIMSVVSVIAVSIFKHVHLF

With `Cc1nc(-c2cc(C(=O)O)no2)cs1` [Compound 5] the “LE (ligand efficiency)” value [1] was 0.34 and the “aggregation (light scattering)” value ([2]; 50, 25, 10, 5 and 1 µM, room temperature) was “no detectable aggregation at all”.

For `CC1(C)CS(=O)(=O)N(c2ccc(S(=O)(=O)Cl)cc2)C1=O` [SI-5], the “IC50 [CI95%]” value [1, 3] was “Inactive”.

For `CCOC(=O)c1cc(-c2ccc(OC)c(S(=O)(=O)N3CCOc4ccccc43)c2)on1` [SI-22], the “IC50 [CI95%]” value [1, 3] was “Inactive”.

In the case of `CCOC(=O)c1cc(-c2cccc(C(C)(C)C)c2)on1` [Compound 10j], the IC50 [1, 4] is reported as 1210 µM and the “IC50 [CI95%]” value [1, 3] is reported as “Slightly active”.

With `CCOC(=O)c1cc(-c2cccc(-c3cc(C(=O)OCC)no3)c2)on1` [Compound 10n] the “biological activity (in words)” value [1] was “neither the carboxylic acid 11n nor the ester 10n were notably active”.

With `CCOC(=O)c1cc(-c2ccc(OC)c(S(=O)(=O)Nc3cccc(Cl)c3)c2)on1` [SI-30] the “IC50 [CI95%]” value [1, 3] was “Inactive”.

Work on `CCOC(=O)c1cc(-c2ccc(OC)c(S(=O)(=O)Nc3cc(C)on3)c2)on1` [SI-17] yielded an IC50 [1, 4] of 240 µM and an IC50 [1, 5] of 240 µM.

For `CCOC(=O)c1cc(-c2csc(-c3cccc(Cl)c3)n2)on1` [SI-15], the “IC50 [CI95%]” value [1, 3] was “Inactive”.

For `CC(C)(C)c1cc(CN)cc(C(C)(C)C)c1` [SI-45], the “IC50 [CI95%]” value [1, 3] was “Inactive”.

In the case of `CC(C)(C)c1cc(C(=O)Nc2ccccc2C(=O)O)cc(C(C)(C)C)c1` [SI-47], the “IC50 [CI95%]” value [1, 3] is reported as “Inactive”.

In the case of `CC(C)(C)c1cc(CO)cc(C(C)(C)C)c1` [SI-46], the “IC50 [CI95%]” value [1, 3] is reported as “Inactive”.

For `CCOC(=O)c1cc(-c2ccc(OC)c(S(=O)(=O)N3CCc4ccccc43)c2)on1` [SI-25], the “IC50 [CI95%]” value [1, 3] was “Inactive”.

In the case of `Cc1nc(-c2cc(C(=O)Oc3ccccc3Br)no2)cs1` [Compound 25], the “fold loss in activity compared to the carboxylic acids” value ([1]; 2-bromophenyl carboxylates 25 and 26 versus 5 and 23) is reported as 27 fold.

In the case of `CC(C)(C)c1cc(C(=O)Nc2nccs2)cc(C(C)(C)C)c1` [Compound 13], the “LE (ligand efficiency)” value [1] is reported as 0.20.

With `CCOC(=O)c1cc(-c2ccc(OC)c(S(=O)(=O)NC3CCCc4ccccc43)c2)on1` (centres unmarked) [SI-19] the IC50 [1, 4] was 29.1 µM, the IC50 [1, 5] was 29 µM and the “LE (ligand efficiency)” value [1] was 0.14.

For `CC(C)(C)c1cc(C(=O)Nc2ccccc2Br)cc(C(C)(C)C)c1` [Compound 15], the “LE (ligand efficiency)” value [1] was 0.18.

For `Cc1cc(C)cc(-c2cc(C(=O)Oc3ccccc3Br)no2)c1` [Compound 12k], the “LE (ligand efficiency)” value [1] was 0.22, the “aggregation (light scattering)” value ([2]; at 10 µM, 5 µM and 1 µM) was “only minor/no detectable aggregation” and the “aggregation (light scattering)” value ([2]; at 50 µM and 25 µM) was “showed aggregate formation”.

For `CCOC(=O)c1cc(-c2ccc(OC)c(S(=O)(=O)N3CCCc4ccccc43)c2)on1` [SI-20], the “IC50 [CI95%]” value [1, 3] was “Inactive”.

In the case of `CCOC(=O)c1cc(-c2csc(CS(C)(=O)=O)n2)on1` [SI-13], the “IC50 [CI95%]” value [1, 3] is reported as “Inactive”.

With `CC(C)(C)c1cc(C(=O)OCCN2CCOCC2)cc(C(C)(C)C)c1` [SI-49] the IC50 [1, 4] was 340 µM and the IC50 [1, 5] was 340 µM.

For `O=C(O)c1cc(-c2cccc(-c3cc(C(=O)O)no3)c2)on1` [Compound 11n], the “biological activity (in words)” value [1] was “neither the carboxylic acid 11n nor the ester 10n were notably active”.

With `O=C(O)c1ccc2c(c1)B(O)OC2` [SI-3] the “IC50 [CI95%]” value [1, 3] was “Inactive”.

For `Nc1nnnn1CC(=O)O` [SI-11], the “IC50 [CI95%]” value [1, 3] was “Inactive”.

In the case of `CCOC(=O)c1cc(-c2ccc(OC)cc2)on1` [Compound 10g], the “IC50 [CI95%]” value [1, 3] is reported as “Inactive”.
